Test results: ChEMBL document CHEMBL6109040, “Tyrosine kinase 2 inhibitors: Synthesis and applications in the treatment of autoimmune diseases” (Eur J Med Chem, 2025)
Blank lines part the entries; values can stand above or below the compound they belong to.

Experiments:
[1] = Inhibition of IL-12 induced IFNgamma production in human NK92 cells; assay type: functional, cell-based, NK-92
[2] = target: Tyrosine-protein kinase JAK2 (Homo sapiens, UniProt O60674); experiment: Binding affinity to JAK2 […] pseudokinase domain (unknown origin) assessed as dissociation constant by TR-FRET assay
[3] = target: T1, Non-receptor tyrosine-protein kinase TYK2 (Homo sapiens, UniProt P29597); experiment: Inhibition of TYK2 JH2 pseudokinase domain (unknown origin) by TR-FRET assay
[4] = target: T2, Tyrosine-protein kinase JAK1 (Homo sapiens, UniProt P23458); experiment: Binding affinity to recombinant human JAK1 JH2 (553 to 856 residues) pseudokinase domain assessed as inhibition constant by fluorescence polarization assay
[5] = target: T2, Tyrosine-protein kinase JAK1; experiment: Inhibition of JAK1 (unknown origin)
[6] = target: T1, Non-receptor tyrosine-protein kinase TYK2; experiment: Binding affinity to recombinant human TYK2 JH2 (564 to 876 residues) pseudokinase domain assessed as dissociation constant by fluorescence polarization assay
[7] = Inhibition of IFNalpha-induced STAT5 phosphorylation in human PBMC cells; assay type: cell-based
[8] = target: T1, Non-receptor tyrosine-protein kinase TYK2; experiment: Binding affinity to TYK2 JH2 (556 to 888 residues) pseudokinase domain (unknown origin) assessed as dissociation constant by KINOMEscan assay
[9] = Cmax in BALB/c mouse at 5 mg/kg, po by LC-MS/MS analysis; assay type: ADME, organism-based; settings: in vivo
[10] = AUC in BALB/c mouse at 5 mg/kg, po by LC-MS/MS analysis; assay type: ADME, organism-based; settings: in vivo

T1 sequence (P29597 whole entry, the tested form may be a part): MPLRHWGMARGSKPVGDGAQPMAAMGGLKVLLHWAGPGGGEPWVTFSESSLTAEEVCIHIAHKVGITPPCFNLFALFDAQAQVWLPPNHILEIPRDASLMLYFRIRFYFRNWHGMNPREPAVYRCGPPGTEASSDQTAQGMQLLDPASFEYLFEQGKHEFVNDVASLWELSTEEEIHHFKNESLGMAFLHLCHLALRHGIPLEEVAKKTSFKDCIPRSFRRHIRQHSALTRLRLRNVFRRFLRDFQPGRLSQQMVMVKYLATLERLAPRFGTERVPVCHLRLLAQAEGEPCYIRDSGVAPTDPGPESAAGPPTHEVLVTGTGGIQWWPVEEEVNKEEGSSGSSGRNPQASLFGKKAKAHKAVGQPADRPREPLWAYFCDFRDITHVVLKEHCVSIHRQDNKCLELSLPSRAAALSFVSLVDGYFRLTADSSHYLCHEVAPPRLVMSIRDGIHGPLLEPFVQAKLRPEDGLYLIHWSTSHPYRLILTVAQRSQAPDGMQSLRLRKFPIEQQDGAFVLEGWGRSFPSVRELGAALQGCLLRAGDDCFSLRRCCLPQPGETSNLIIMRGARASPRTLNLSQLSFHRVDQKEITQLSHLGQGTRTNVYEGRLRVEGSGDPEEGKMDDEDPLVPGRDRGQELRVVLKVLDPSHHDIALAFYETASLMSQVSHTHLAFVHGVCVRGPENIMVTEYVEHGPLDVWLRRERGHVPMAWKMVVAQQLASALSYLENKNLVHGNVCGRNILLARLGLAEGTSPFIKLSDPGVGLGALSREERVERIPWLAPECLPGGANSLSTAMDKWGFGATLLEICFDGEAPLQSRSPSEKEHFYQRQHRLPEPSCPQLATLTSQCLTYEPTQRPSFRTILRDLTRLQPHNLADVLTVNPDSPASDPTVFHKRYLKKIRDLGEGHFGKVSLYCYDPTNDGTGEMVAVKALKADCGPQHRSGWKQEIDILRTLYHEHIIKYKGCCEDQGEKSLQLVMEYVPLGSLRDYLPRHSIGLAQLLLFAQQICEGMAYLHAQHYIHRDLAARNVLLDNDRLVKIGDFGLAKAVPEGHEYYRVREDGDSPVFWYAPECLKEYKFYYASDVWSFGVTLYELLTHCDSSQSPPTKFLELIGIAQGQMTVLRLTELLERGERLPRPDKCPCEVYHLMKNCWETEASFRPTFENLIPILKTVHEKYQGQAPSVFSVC
T2 sequence (P23458 whole entry, the tested form may be a part): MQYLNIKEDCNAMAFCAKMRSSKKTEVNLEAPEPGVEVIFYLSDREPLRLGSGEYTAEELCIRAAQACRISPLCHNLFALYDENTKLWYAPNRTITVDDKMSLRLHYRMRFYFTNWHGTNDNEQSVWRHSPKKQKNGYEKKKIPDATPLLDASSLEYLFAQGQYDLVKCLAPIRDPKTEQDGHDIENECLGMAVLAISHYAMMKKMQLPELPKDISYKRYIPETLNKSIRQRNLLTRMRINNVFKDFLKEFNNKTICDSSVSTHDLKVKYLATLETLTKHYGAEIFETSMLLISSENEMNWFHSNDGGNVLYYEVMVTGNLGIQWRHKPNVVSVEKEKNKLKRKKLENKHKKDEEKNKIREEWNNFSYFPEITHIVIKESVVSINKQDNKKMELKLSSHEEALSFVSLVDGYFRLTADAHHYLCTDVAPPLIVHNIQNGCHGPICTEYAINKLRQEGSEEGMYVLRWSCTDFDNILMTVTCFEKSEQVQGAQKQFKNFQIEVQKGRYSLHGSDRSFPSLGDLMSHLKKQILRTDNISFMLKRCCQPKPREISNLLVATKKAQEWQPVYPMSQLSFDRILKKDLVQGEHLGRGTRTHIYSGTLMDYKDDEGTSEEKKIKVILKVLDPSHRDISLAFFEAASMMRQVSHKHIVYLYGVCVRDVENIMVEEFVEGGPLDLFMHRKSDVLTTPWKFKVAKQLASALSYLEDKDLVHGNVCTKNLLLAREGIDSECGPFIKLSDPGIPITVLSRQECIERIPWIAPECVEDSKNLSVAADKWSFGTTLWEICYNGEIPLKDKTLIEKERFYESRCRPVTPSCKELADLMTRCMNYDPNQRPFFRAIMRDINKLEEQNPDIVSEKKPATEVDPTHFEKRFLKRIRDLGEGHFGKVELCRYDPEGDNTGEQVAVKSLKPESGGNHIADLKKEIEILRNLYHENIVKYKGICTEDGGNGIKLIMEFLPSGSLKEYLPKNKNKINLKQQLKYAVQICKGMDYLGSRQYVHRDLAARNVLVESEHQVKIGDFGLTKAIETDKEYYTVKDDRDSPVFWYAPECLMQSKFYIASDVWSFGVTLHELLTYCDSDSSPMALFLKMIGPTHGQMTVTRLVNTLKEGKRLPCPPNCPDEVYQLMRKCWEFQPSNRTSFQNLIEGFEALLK
Tyrosine-protein kinase JAK2, sequence (O60674 whole entry, the tested form may be a part): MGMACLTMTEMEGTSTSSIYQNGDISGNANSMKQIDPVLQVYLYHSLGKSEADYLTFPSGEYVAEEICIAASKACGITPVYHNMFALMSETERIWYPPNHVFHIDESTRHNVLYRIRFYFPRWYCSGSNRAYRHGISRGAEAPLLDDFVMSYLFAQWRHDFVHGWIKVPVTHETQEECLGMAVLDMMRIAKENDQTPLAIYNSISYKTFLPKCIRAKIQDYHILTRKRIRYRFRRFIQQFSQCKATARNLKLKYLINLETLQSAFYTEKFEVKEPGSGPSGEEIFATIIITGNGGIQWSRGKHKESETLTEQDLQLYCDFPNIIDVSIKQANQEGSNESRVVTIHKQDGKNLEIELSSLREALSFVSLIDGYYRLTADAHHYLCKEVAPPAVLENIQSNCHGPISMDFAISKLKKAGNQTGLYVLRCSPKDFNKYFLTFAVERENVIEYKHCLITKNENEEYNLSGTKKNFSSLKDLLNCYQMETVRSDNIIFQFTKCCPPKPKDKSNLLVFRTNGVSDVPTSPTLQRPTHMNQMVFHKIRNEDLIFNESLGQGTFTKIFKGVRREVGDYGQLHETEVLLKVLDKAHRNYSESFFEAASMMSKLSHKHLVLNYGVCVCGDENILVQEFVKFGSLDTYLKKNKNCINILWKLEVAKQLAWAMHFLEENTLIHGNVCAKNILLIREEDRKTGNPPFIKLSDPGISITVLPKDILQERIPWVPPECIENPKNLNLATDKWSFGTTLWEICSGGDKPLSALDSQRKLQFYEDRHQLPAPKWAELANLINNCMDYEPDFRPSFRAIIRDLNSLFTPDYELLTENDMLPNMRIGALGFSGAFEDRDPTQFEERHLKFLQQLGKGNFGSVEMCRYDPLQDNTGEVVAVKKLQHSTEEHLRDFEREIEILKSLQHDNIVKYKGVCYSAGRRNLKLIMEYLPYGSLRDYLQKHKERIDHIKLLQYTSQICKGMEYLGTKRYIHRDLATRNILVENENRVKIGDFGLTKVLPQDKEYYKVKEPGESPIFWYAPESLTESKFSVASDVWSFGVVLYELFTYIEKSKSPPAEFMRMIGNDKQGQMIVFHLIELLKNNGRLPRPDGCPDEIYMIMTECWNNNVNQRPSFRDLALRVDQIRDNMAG

SMILES: CC(=O)Nc1cc(Nc2cccc(S(C)(=O)=O)n2)c(-c2ccccn2)cn1
- IC50 [1]: 0.243 nM

SMILES: NC(=O)c1nnc(-c2c(F)cccc2F)cc1Nc1ccc(N2CCOCC2)cn1
- IC50 [1]: 80 nM

SMILES: CO[C@@]1(c2cc(C)cc(-n3cc(C4CC4)c4cnc(NC(C)=O)cc43)n2)CCOC1
- Ki [4]: > 10000 nM

SMILES: CNc1cc2nn3c(cnc13)C(=O)N[C@H](C)COCc1ccc(OC)c(c1)N2
- Kd [6]: 0.023 nM
- IC50 [7]: 1.7 nM
- Kd [8]: 0.022 nM

More lines, now with the values ahead:

- Kd [2]: > 10000 nM
- IC50 [3]: < 1 nM
SMILES: CNC(=O)c1cnc2cc1Nc1cc(cc(-c3ccn(C)n3)c1OC)CCOCc1cccc(n1)N2

- IC50 [5]: 5900 nM
SMILES: CNC(=O)c1nnc(NC(=O)N2CCC2)cc1Nc1cccc(-c2ncn(C)n2)c1OC

- Cmax [9]: 1.16 µg/mL
- AUC [10]: 3.65 µg·h/mL
SMILES: [2H]C([2H])([2H])N1Cc2nc(NC(=O)C3CC3)cc(Nc3cccc(-c4ncn(C)n4)c3OC)c2C1=O
